From US20240269139A1, “COMPOUNDS FOR TARGETED PROTEIN DEGRADATION OF KINASES” (DANA-FARBER CANCER INSTITUTE, INC., priority 2020, published 2024)
Like-named read-outs stand apart in the source and are kept apart here.

How the values were obtained:
Type in all cases: cell-based
[1] = target: protein kinases (human kinome) (Homo sapiens, UniProt Q00534); settings: for logFC CDK6: CDK6 (Q00534), direction down; for logFC of CDK6 (Q00534): down
[2] = target: T1, protein kinases (human kinome) (Homo sapiens, UniProt O14976)
T1 sequence (O14976 1-1311): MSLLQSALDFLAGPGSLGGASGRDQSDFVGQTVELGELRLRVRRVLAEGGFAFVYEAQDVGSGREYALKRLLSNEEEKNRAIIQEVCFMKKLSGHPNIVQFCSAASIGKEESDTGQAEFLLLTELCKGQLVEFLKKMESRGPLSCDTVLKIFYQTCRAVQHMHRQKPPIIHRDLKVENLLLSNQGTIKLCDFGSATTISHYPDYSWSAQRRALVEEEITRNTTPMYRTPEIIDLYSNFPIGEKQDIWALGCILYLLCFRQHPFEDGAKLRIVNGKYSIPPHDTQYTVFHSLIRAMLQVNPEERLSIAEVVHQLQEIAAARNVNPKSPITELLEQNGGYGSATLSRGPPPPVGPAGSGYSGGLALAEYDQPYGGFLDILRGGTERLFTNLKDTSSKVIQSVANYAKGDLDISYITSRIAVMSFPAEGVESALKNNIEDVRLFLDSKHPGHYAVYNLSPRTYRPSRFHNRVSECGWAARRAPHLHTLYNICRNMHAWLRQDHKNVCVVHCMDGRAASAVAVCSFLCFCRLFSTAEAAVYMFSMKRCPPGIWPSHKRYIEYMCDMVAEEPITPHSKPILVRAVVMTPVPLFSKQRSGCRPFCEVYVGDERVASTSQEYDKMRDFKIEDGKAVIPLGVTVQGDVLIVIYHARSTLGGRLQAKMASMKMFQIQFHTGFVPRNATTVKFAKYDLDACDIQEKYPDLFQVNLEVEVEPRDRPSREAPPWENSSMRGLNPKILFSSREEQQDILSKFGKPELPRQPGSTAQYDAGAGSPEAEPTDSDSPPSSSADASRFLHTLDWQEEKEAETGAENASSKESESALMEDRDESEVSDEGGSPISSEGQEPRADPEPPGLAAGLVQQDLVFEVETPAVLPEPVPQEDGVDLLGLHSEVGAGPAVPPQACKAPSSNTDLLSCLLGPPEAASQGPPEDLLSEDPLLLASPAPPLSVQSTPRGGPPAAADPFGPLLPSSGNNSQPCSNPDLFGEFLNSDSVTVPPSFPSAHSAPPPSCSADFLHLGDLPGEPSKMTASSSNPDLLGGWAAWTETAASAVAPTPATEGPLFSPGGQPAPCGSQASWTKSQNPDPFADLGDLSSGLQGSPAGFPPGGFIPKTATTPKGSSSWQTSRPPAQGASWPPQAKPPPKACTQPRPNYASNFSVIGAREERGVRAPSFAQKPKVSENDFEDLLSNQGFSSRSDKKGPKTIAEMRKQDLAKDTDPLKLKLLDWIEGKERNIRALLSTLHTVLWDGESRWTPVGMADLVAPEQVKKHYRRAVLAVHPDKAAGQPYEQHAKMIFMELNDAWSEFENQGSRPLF

[3] = target: protein kinases (human kinome) (Homo sapiens, UniProt P16591); settings: for logFC of FER (P16591-1): down
protein kinases (human kinome) (Homo sapiens, UniProt P16591), sequence (P16591 whole entry): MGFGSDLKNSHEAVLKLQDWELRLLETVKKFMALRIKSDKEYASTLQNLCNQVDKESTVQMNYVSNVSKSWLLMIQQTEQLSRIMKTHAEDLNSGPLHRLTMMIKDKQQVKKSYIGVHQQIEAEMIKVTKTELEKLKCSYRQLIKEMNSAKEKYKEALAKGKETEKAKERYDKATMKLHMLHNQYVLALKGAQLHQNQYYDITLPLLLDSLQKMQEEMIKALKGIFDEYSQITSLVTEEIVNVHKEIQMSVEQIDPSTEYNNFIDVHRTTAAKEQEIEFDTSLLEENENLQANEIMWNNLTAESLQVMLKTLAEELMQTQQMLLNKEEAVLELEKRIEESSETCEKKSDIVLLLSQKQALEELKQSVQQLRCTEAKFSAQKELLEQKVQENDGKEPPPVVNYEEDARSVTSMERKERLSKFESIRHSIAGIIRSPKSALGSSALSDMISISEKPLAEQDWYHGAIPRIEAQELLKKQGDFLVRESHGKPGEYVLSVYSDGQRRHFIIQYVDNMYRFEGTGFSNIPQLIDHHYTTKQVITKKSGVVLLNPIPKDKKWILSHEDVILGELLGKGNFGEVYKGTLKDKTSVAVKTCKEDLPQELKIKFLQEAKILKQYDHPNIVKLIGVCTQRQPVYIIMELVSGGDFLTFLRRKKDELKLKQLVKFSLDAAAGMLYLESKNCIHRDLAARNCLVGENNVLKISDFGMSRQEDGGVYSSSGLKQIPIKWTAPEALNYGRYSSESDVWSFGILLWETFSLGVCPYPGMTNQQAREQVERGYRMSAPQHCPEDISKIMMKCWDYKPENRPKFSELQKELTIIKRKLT

protein kinases (human kinome) (Homo sapiens, UniProt Q00534), sequence (Q00534 whole entry): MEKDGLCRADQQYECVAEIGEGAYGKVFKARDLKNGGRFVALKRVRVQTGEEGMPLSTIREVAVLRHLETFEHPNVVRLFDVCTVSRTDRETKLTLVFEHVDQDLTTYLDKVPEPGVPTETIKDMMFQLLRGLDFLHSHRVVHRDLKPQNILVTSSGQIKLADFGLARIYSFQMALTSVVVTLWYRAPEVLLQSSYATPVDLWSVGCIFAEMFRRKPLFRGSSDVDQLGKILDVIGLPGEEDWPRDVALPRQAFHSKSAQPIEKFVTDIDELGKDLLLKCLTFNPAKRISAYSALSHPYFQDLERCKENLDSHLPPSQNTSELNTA

With `CC(=O)c1c(C)c2cnc(Nc3ccc(N4CCN(CCOCCOCCOCCNC(=O)COc5cccc6c5C(=O)N(C5CCC(=O)NC5=O)C6=O)CC4)cn3)nc2n(C2CCCC2)c1=O` (stereo not shown) [BSJ.03.123] as the molecule, how does the “logFC CDK6” value ([1]; experiment wp084) read?
The value was −3.058.

What about the “logFC of CDK6 (Q00534)” value ([1]; Experiment wp084) of the same molecule?
The value was −3.058.

Which “logFC of GAK (O14976)” value ([2]; Experiment wp045, down) does the source give for `Cc1ccc(NC(=O)c2cccc(C(F)(F)F)c2)cc1N1Cc2cnc(Nc3ccc(N4CCN(Cc5cn(CCCCCOc6cccc7c6C(=O)N(C6CCC(=O)NC6=O)C7=O)nn5)CC4)nc3)nc2N(C)C1=O` (stereo not shown) [DB0646, N-(3-(7-((6-(4-((1-(5-((2-(2,6-Dioxopiperidin-3-yl)-1,3-dioxoisoindolin-4-yl)oxy)pentyl)-1H-1,2,3-triazol-4-yl)methyl)piperazin-1-v)pyridin-3-yl)amino)-1-methyl-2-oxo-1,4-dihydropyrimido[4,5-d]pyrimidin-3(2H)-yl)-4-methylphenyl)-3-(trifluoromethyl)benzamide] here?
The value was −0.6424.

What about the “logFC of GAK (O14976)” value ([2]; Experiment wp103, down) of the same molecule?
Its value is −0.4684.

And the “logFC of GAK (O14976)” value ([2]; Experiment wp105, down)?
Its value is −0.3367.

What about the “logFC of GAK (O14976)” value ([2]; Experiment wp107, down) of the same molecule?
Its value is −0.5564.

What about the “logFC of GAK (O14976)” value ([2]; Experiment wp114, down) of the same molecule?
Its value is −0.3391.

And the “logFC of GAK (O14976)” value ([2]; Experiment wp117, down)?
The value was −0.5868.

And the “logFC of GAK (O14976)” value ([2]; Experiment wp152, down)?
Its value is −0.5117.

And the “logFC of GAK (O14976)” value ([2]; Experiment wp160, 4 hr, down)?
The value was −0.4714.

And the “logFC GAK” value ([2]; GAK (O14976), direction down, experiment wp045)?
Its value is −0.6424.

What about the “logFC GAK” value ([2]; GAK (O14976), direction down, experiment wp103) of the same molecule?
Its value is −0.4684.

What about the “logFC GAK” value ([2]; GAK (O14976), direction down, experiment wp105) of the same molecule?
Its value is −0.3367.

What about the “logFC GAK” value ([2]; GAK (O14976), direction down, experiment wp107) of the same molecule?
The value was −0.5564.

And the “logFC GAK” value ([2]; GAK (O14976), direction down, experiment wp114)?
The value was −0.3391.

What about the “logFC GAK” value ([2]; GAK (O14976), direction down, experiment wp117) of the same molecule?
The value was −0.5868.

What about the “logFC GAK” value ([2]; GAK (O14976), direction down, experiment wp152) of the same molecule?
The value was −0.5117.

And the “logFC GAK” value ([2]; GAK (O14976), direction down, experiment wp160, 4 hr)?
Its value is −0.4714.

What about the “logFC GAK” value ([2]; GAK (O14976), direction down, experiment wp160, 8 hr) of the same molecule?
Its value is −0.8149.

What about the “logFC GAK” value ([2]; GAK (O14976), experiment wp160, 8 hr, degrader vs DMSO, down) of the same molecule?
Its value is −0.8149.

And the “logFC GAK” value ([2]; GAK (O14976), experiment wp172, down)?
The value was −0.345.

What about the “logFC GAK” value ([2]; GAK, accession O14976, experiment wp172, direction of change down) of the same molecule?
Its value is −0.345.

And the “logFC of FER (P16591-1)” value ([3]; Experiment wp045)?
The value was −1.712.

And the “logFC of FER (P16591-1)” value ([3]; Experiment wp103)?
The value was −1.628.

What about the “logFC of FER (P16591-1)” value ([3]; Experiment wp105) of the same molecule?
Its value is −0.8737.

What about the “logFC of FER (P16591-1)” value ([3]; Experiment wp107) of the same molecule?
Its value is −1.722.

And the “logFC of FER (P16591-1)” value ([3]; Experiment wp117)?
The value was −1.753.

What about the “logFC of FER (P16591-1)” value ([3]; Experiment wp160, 2 hr) of the same molecule?
Its value is −0.5384.

And the “logFC of FER (P16591-1)” value ([3]; Experiment wp160, 4 hr)?
The value was −1.454.

What about the “logFC of FER (P16591-1)” value ([3]; Experiment wp160, 8 hr) of the same molecule?
The value was −1.737.

What about the “logFC of FER” value ([3]; FER P16591-1, experiment wp045) of the same molecule?
Its value is −1.712.

What about the “logFC of FER” value ([3]; FER P16591-1, experiment wp103) of the same molecule?
The value was −1.628.

And the “logFC of FER” value ([3]; FER P16591-1, experiment wp105)?
The value was −0.8737.

What about the “logFC of FER” value ([3]; FER P16591-1, experiment wp107) of the same molecule?
Its value is −1.722.

And the “logFC of FER” value ([3]; FER P16591-1, experiment wp117)?
The value was −1.753.

What about the “logFC of FER” value ([3]; FER P16591-1, experiment wp160, 2 hr) of the same molecule?
Its value is −0.5384.

What about the “logFC of FER” value ([3]; FER P16591-1, experiment wp160, 4 hr) of the same molecule?
Its value is −1.454.

And the “logFC of FER” value ([3]; FER P16591-1, experiment wp160, 8 hr)?
The value was −1.737.

What about the “logFC of FER” value ([3]; FER P16591, experiment wp152) of the same molecule?
The value was −1.698.

What about the “logFC of FER (P16591)” value ([3]; experiment wp152) of the same molecule?
Its value is −1.698.

Which results are given for `CC(C)(C)c1nc(-c2cccc(NS(=O)(=O)c3c(F)cccc3F)c2F)c(-c2ccnc(NCCOCCNC(=O)CCOCCOCCNc3cccc4c3C(=O)N(C3CCC(=O)NC3=O)C4=O)n2)s1` (stereo not shown) [DD.03.106]?
logFC CDK6 ([1]; experiment wp047): −1.086; logFC CDK6 ([1]; experiment wp137): −1.083; logFC CDK6 ([1]; experiment wp147, 1 uM): −0.8934; logFC CDK6 ([1]; experiment wp147, 2 uM): −1.348; logFC CDK6 ([1]; experiment wp147, 4 uM): −1.159; logFC of CDK6 (Q00534) ([1]; Experiment wp047): −1.086; logFC of CDK6 (Q00534) ([1]; Experiment wp137): −1.083; logFC of CDK6 (Q00534) ([1]; Experiment wp147, 1 uM): −0.8934; logFC of CDK6 (Q00534) ([1]; Experiment wp147, 2 uM): −1.348; logFC of CDK6 (Q00534) ([1]; Experiment wp147, 4 uM): −1.159

What does the source list for `Cc1ccc(NC(=O)c2cccc(C(F)(F)F)c2)cc1N1Cc2cnc(Nc3ccc(N4CCN(CCCCC(=O)N[C@H](C(=O)N5C[C@H](O)C[C@H]5C(=O)N[C@@H](C)c5ccc(-c6scnc6C)cc5)C(C)(C)C)CC4)nc3)nc2N(C)C1=O` [DB1113]?
logFC GAK ([2]; GAK (O14976), experiment wp168, down): −1.029; logFC GAK ([2]; GAK, accession O14976, experiment wp168, direction of change down): −1.029; logFC of FER (P16591-1) ([3]; Experiment wp168): −1.118; logFC of FER ([3]; FER P16591-1, experiment wp168): −1.118

How did the “logFC of GAK (O14976)” value ([2]; Experiment wp081, down) turn out when `Cc1ccc(C(=O)Nc2ccc(CN3CCN(CCOCCOCCNC(=O)CNc4cccc5c4C(=O)N(C4CCC(=O)NC4=O)C5=O)CC3)c(C(F)(F)F)c2)cc1C#Cc1cnc2cccnn12` (stereo not shown) [TL13.150] was run?
Its value is −1.014.

And the “logFC GAK” value ([2]; GAK (O14976), direction down, experiment wp081)?
Its value is −1.014.

What about the “logFC of FER (P16591-1)” value ([3]; Experiment wp081) of the same molecule?
Its value is −1.511.

What about the “logFC of FER” value ([3]; FER P16591-1, experiment wp081) of the same molecule?
The value was −1.511.
